System: C57Bl/6J wild-type mice with rmTBI
Test: Morris Water Maze assessment for spatial memory in rmTBI mice, intranasal zinc vs vehicle
Type: in vivo
Experimental: Subjects were C57Bl/6J wild-type mice that were 6 weeks of age at the time of the first stressor. All mice received rmTBI delivered using a system 100/200.
For 7 days, stress groups were subject to a rotation of varied stressors, including: • 1. Deprivation of food, water, and enrichment for 8 hours. • 2. Exposure to soiled rat bedding in home cage. • 3. Exposure to bobcat urine in home cage. • 4. Forced swim in ice bath for 5 minutes. • 5. Home cage flooded with water. • 6. Home cage placed on orbital shaker for 5 minutes. • 7. Loud static noise for 1 hour. • 8. Restraint in conical Falcon tube for 1 hour.
A second week of varied stressors was administered concurrently with rmTBI. The rmTBI closed-head injury was induced by Leica One Controlled Cortical Impact device with falling platform as in system 100, causing the mouse to rotate upon impact. Anesthetized mice received one mTBI every 48 hours over the course of 7 days for a total of 4 injuries. Immediately following injury, mice were intranasally administered either zinc treatment or vehicle control (water).
Changes in behavior were also analyzed, using the Morris Water Maze assessment for spatial memory over 7 days. In this measure of learning and memory, the mouse is tested for the ability to locate a platform in a pool of water using visual cues. Days 1-6 had 3 trials, and days 2, 4 and 6 used a hidden platform for trial 3. Day 7 comprised a 24-hr probe trial.

Substance: zinc
- time spent in the quadrant of the maze where the platform was present (Morris water maze) (day 6, non-stressed mice only, trending stress x zinc interaction F(1,39)=4.002, p=0.052, zinc intranasally after injury vs vehicle, FIG. 11): beneficial effect
- number of platform crossings (Morris water maze) (effect only for stressed mice, stress x zinc interaction F(1,39)=4.207, p=0.047, zinc intranasally after injury vs vehicle, FIG. 10): significantly increased
- latency in locating the maze platform (Morris water maze) (stressed and non-stressed, zinc intranasally immediately after each injury vs vehicle control (water), F(1,39)=2.184, p=0.147, FIG. 9): did not differ

From patent publication US11963848B2, “Impactor platform allowing freefall upon impact” (George Mason University, priority 2019, dated 2024)
